The data set can be described thus: gradient 5% acetonitrile 3 min, to 50% in 2 min, to 85% in 15 min, held 3 min, 100 µL/min. Conditions: column: Zorbax Extend-C18 2.1 x 50 mm; eluents: water / acetonitrile, 0.1% formic acid. A digest of the protocol:
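Using water and acetonitrile that each contained 0.1% formic acid, mixtures of ~100 pure standards were separated at 100 μL/min on a Zorbax Extend-C18 column (2.1 × 50 mm, 1.8 μm). The HPLC fed a quadrupole time-of-flight mass spectrometer working in positive and negative ionization mode, with dead and dwell volumes of 40 μL and 900 μL. Data were acquired over 3 months. Retention time was read from computationally picked adduct peaks after manual inspection of each.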
On to `CN(CC1CCOC1)C(=O)c1ccc(F)c(F)c1` (stereo not drawn), for which the RP-LC retention time came to 683 s.

On to `CC(C)c1ccc(-c2ccnc3c(C(=O)NCc4cccnc4)cnn23)cc1`, for which the RP-LC retention time came out at 723 s.

The molecule `Cc1ccc(N2N=NC3C(=O)N(c4ccccc4)C(=O)C32)cc1C` (stereo not drawn) came in with an RP-LC retention time of 1010 s.

Molecule `O=C(C1=CN(c2ccc(Oc3ccccc3)cc2)c2cc(F)ccc2S1(=O)=O)N1CCOCC1` came in with an RP-LC retention time of 958 s.

In turn, `Cc1nc(N2CCOCC2)c2c(C(=O)NCc3ccc(F)cc3)c(C)oc2n1` had an RP-LC retention time of 702 s.

Turning to `Cc1c(C(=O)N(C)C)cnn1-c1cc(-c2nc(C(C)(C)C)no2)ccn1`, the RP-LC retention time was 922 s.

`Cc1ccccc1NC(=O)N1CC(Cc2nncn2C(C)C)C1` returned an RP-LC retention time of 616 s.

`O=C(NC(c1ccccc1)c1nnc(N2CCCC2)o1)c1ccc(Cl)cc1` (stereo not drawn) gave an RP-LC retention time of 860 s.

The molecule `CCn1nccc1-c1cccc(-c2noc(CNC(=O)Cc3ccc(Cl)cc3)n2)c1` showed an RP-LC retention time of 922 s.

Molecule `Cn1cccc1C(=O)Nc1cnn(-c2ncc(N3CCCCC3)cn2)c1` yielded an RP-LC retention time of 819 s.

Take `COc1ccc(C(=O)N(Cc2cc(OC)c(OC)c(OC)c2)C2CCS(=O)(=O)C2)cc1Cl` (stereo not drawn): the RP-LC retention time turned out to be 817 s.

As for `CCOc1ccc(NC(=O)Cn2ncc3c(c2=O)N(C2CC2)C(=O)CS3)cc1`, the RP-LC retention time was found to be 671 s.

`COC(=O)CN1CN(c2ccccc2)C2(CCN(Cc3cccc4ccccc34)CC2)C1=O`: the RP-LC retention time came out at 729 s.

For `Cc1cccc(C)c1Nc1c(-c2c(F)cccc2Cl)nc2cnccn12`, the RP-LC retention time is 866 s.

The molecule `Cc1cc(F)ccc1NC(=O)C1CC(=O)N(c2ccc3c(c2)CCN3C(=O)C2CC2)C1` (stereo not drawn) returned an RP-LC retention time of 758 s.

Turning to `O=C(NC1CCCCCC1)c1nc(-c2ccnc(N3CCCC3)c2)no1`, the RP-LC retention time was found to be 709 s.

With `COc1ccc(-c2cc3c(=O)n(Cc4ccccc4)ccn3n2)cc1OC`, the RP-LC retention time amounted to 906 s.

In turn, `CC(C)Cn1c(=O)c(C(=O)NCCCc2ccccc2)nc2cccnc21` displayed an RP-LC retention time of 888 s.

Molecule `CCCn1c(CCNC(=O)c2ccccc2)nc2cccnc21` returned an RP-LC retention time of 633 s.

For the molecule `O=C1COc2ccc(S(=O)(=O)N3CCC(C(=O)NCc4ccc5c(c4)OCO5)CC3)cc2N1`, the RP-LC retention time stood at 708 s.

Regarding `Cc1ccc(OCC(=O)N(Cc2ccc(N(C)C)cc2)C2CCS(=O)(=O)C2)cc1C` (stereo not drawn), the RP-LC retention time worked out at 774 s.

In turn, `CCOC(=O)c1ccc(NC(=O)Cn2cnc3nc(N4CCCC4)ncc3c2=O)cc1` registered an RP-LC retention time of 753 s.

Take `Cc1ccc(S(=O)(=O)N2CCC(C(=O)NCc3csc(-c4cccs4)n3)CC2)c(C)c1`: the RP-LC retention time was determined as 977 s.

Consider `COc1cc(-c2ccc(Cl)cc2)nc2ccc(NC(=O)c3cccs3)cc12`, for which the RP-LC retention time was 814 s.

`C=CCCC1(C2=CCCCC2)C(=O)NC(=O)NC1=O` showed an RP-LC retention time of 804 s.

Take `COc1ccc(-c2csc3c(=O)n(Cc4ccccc4)cnc23)cc1OC`: the RP-LC retention time stood at 948 s.

For the molecule `COCCCn1c(=O)c2ccccc2n(Cc2nc(-c3cccc(Cl)c3)no2)c1=O`, the RP-LC retention time was determined as 1100 s.

With `O=C(Nc1ccc2nncn2c1)Nc1ccc(F)cc1F`, the RP-LC retention time turned out to be 680 s.

Take `OCCN1CCN(c2ncnc3c2cnn3-c2cccc(Cl)c2)CC1`: the RP-LC retention time turned out to be 592 s.

`Cc1ccc(N2C(=O)C3N=NN(Cc4nc(-c5cccc(C)c5)no4)C3C2=O)cc1` (stereo not drawn) registered an RP-LC retention time of 1040 s.

In the case of `O=c1n(Cc2c(F)cccc2Cl)nc2c(S(=O)(=O)N3CCc4ccccc4C3)cccn12`, the RP-LC retention time worked out at 975 s.

Consider `CCn1ncn2cc(S(=O)(=O)Nc3ccc(C)c(C)c3)cc2c1=O`, for which the RP-LC retention time was found to be 930 s.

For `COc1ccccc1Oc1c(C)oc2cc(OCC(=O)N[C@H](C)C(=O)O)ccc2c1=O`, the RP-LC retention time came out at 710 s.

In the case of `O=C(CN1CCCCC1c1nc(-c2ccc(F)cc2)no1)NCc1ccc(F)cc1` (stereo not drawn), the RP-LC retention time is 1080 s.

Regarding `Cc1ccc(N2CC(c3noc(-c4cc(Cl)ccc4F)n3)CC2=O)cc1` (stereo not drawn), the RP-LC retention time stood at 1090 s.

The molecule `Cn1nccc1-c1cccc(-c2noc(-c3ccc(F)c(F)c3)n2)c1` came in with an RP-LC retention time of 1170 s.

`Cc1nn(C)c(C)c1CCCN(C)C(=O)CCc1ccnc(N2CCOCC2)c1` displayed an RP-LC retention time of 521 s.

`Cc1ccc(C(=O)Nc2cccc(C(F)(F)F)c2)cc1Nc1nc(-c2cccnc2)nc2c1cnn2C` had an RP-LC retention time of 788 s.

Consider `COc1ccc(N(CC(O)CNCCC(C)C)S(=O)(=O)c2ccc(C)cc2)cc1` (stereo not drawn), for which the RP-LC retention time came to 620 s.

As to `CCn1ccc(C(=O)N2CCCC2c2ccccc2C)n1` (stereo not drawn), the RP-LC retention time amounted to 870 s.

The molecule `Cc1nc2cc(N3CC(C(=O)NCc4ccccc4F)CC3=O)ccc2o1` (stereo not drawn) registered an RP-LC retention time of 699 s.

For the molecule `O=c1n(Cc2cccc(C(F)(F)F)c2)nc2c(S(=O)(=O)N3CCc4ccccc4C3)cccn12`, the RP-LC retention time was 1010 s.

Molecule `COc1ccc(C)cc1NC(=O)C1CCCN1S(=O)(=O)c1cc2c(cc1C)NC(=O)C(C)O2` (stereo not drawn) gave an RP-LC retention time of 880 s.

In turn, `CC(=O)OCOC(c1ccc2ccccc2c1)P(=O)(OCOC(C)=O)OCOC(C)=O` (stereo not drawn) came in with an RP-LC retention time of 854 s.

With `O=S(=O)(NCCOc1cc(N2CCCC2)ncn1)c1ccc(Cl)s1`, the RP-LC retention time was determined as 664 s.

Turning to `O=C(Cn1nc(N2CCCCCC2)c2ccccc2c1=O)Nc1ccc2c(c1)OCCO2`, the RP-LC retention time was 1010 s.

As for `CCNC(=O)N1CC(C)Oc2ccccc21` (stereo not drawn), the RP-LC retention time stood at 762 s.

Turning to `COc1ccccc1N1CCN(Cc2nc(-c3ccc(N4CCOCC4)nc3)no2)CC1`, the RP-LC retention time is 694 s.

As to `O=C(CCSc1ccccc1)N1CCCC(c2nnc(-c3cccs3)o2)C1` (stereo not drawn), the RP-LC retention time was found to be 837 s.

`CCn1nc(C)c(CCNC(=O)CCCn2c(=O)c3cccn3c3ccc(Br)cc32)c1C` yielded an RP-LC retention time of 730 s.

`O=C(Nc1cccc2cccnc12)C1CCN(c2ccc(-n3cccn3)nn2)CC1` came in with an RP-LC retention time of 745 s.

`Cc1oc(C2CCN(C(=O)Cc3ccccc3Cl)CC2)nc1C(=O)N1CCOCC1` came in with an RP-LC retention time of 716 s.

In turn, `CN(C)C(CNC(=O)C(=O)Nc1ccc(OC(F)(F)F)cc1)c1ccccc1Cl` (stereo not drawn) gave an RP-LC retention time of 622 s.

The molecule `CCc1ccc(Nc2cc(C(=O)N3CCC(C)CC3)nc3cc(OC)c(OC)cc23)cc1` gave an RP-LC retention time of 832 s.

On to `O=S(=O)(CCc1noc(-c2cccc(F)c2)n1)c1ccccc1`, for which the RP-LC retention time turned out to be 904 s.

In the case of `CC(C)n1c(N2CCN(C(=O)Cc3c[nH]c4ccccc34)CC2)cc(=O)n(C(C)C)c1=O`, the RP-LC retention time was found to be 824 s.

With `CCN1C(=O)Cc2ccccc2C1C(=O)NCc1cc(F)ccc1F` (stereo not drawn), the RP-LC retention time is 753 s.

With `CC(C)c1cc(C(=O)N2CCOCC2)nc2ccnn12`, the RP-LC retention time worked out at 637 s.

The record behind these values is the METLIN SMRT retention time set (Domingo-Almenara et al. 2019).
